Measured values: publication PMC10305287, “Design, Synthesis, and Evaluation of the COX-2 Inhibitory Activities of New 1,3-Dihydro-2H-indolin-2-one Derivatives” (Molecules, 2023)
“Also recorded” adds a separate entry of the source.

What was measured:
[1] = tested on: NO production in LPS-stimulated RAW 264.7 cells; experiment: Inhibition of NO production in LPS-stimulated RAW 264.7 cells; type: cell-based, murine; settings: for Anti-inflammatory activity, NO production (in words): LPS-stimulated RAW 264.7 cells; for IC50: LPS-activated RAW 264.7 cells, mean ± SD, n = 3
Protocol: RAW 264.7 cells were cultured in DMEM medium supplemented with 10% fetal bovine serum and 1% penicillin/streptomycin at 37 °C and 5% CO2 in a saturated humidified incubator. Then cells were seeded in 24-well plates (4 × 10^5 cells/well) after 24 h of incubation and treated with different concentrations of compounds (80, 40, 20, and 5 μM) for 2 h. The cells were stimulated with LPS (5 μg/mL) for 24 h, the supernatant was transferred to a new 24-well microtiter plate, and the NO concentration in the cell supernatant was calculated using an NO detection kit (Beyotime Company, Shanghai, China).

RAW 264.7 cells = experiment: Cytotoxicity assay (CCK-8) on RAW 264.7 cells; type: cell-based, mouse
Protocol: The RAW 264.7 murine macrophage cells were obtained from the Cell Bank of the Chinese Academy of Sciences (Shanghai, China). RAW 264.7 cells were cultured in DMEM (Dulbecco’s Modified Eagle Medium) medium supplemented with 10% fetal bovine serum and 1% penicillin/streptomycin at 37 °C and 5% CO2 in a saturated humidified incubator. The Cell Counting Kit-8 (CCK-8) method was used to evaluate the cytotoxicity of all the compounds on RAW 264.7 cells in vitro. […] After 24 h of cultivation, the cells were incubated with a CCK-8 solution (10 µL). After incubation at 37 °C and 5% CO2 for 2–4 h, the optical density (OD) was recorded at 450 nm by a microplate reader. The half-maximal inhibitory concentration (IC50) was calculated by SPSS 22.0 software. PDTC was used as a positive control.

[2] = biological target: T1, human recombinant COX-2 enzyme (Homo sapiens, UniProt P35354); experiment: In vitro COX-2 inhibitory assay (Cyclooxygenase-2 Inhibitor Screening Kit); type: biochemical; settings: for IC50: human recombinant COX-2, fluorescence kit, mean ± SD, n = 3; for COX-2 inhibitory activity (in words): human recombinant COX-2, screening kit
T1 construct: purchased Beyotime Company, Shanghai, China
T1 sequence (P35354 18-604): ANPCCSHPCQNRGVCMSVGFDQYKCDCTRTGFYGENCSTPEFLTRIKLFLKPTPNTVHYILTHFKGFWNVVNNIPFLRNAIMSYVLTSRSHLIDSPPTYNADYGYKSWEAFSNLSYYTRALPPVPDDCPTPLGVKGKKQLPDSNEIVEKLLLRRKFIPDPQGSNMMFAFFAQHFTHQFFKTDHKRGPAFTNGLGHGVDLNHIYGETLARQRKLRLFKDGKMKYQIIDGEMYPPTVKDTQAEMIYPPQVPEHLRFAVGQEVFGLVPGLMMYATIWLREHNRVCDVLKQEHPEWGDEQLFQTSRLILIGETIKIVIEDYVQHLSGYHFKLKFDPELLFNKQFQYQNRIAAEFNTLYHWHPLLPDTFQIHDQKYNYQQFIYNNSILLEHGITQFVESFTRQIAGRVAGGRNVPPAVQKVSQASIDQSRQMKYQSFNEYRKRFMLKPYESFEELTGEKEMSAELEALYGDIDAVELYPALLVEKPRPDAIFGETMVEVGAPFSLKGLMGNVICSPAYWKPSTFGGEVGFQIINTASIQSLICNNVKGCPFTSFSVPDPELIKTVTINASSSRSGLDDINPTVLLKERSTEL
Protocol: The reaction was started by the addition of COX-2 substrate and allowed to proceed for 5 min. The intensity of fluorescence at an emission wavelength of 590 nm upon 560 nm excitation was measured using a microplate reader (Thermo Varioskan LUX, Waltham, MA, USA). All tests were repeated three times independently.

COX-2 = settings: read-out: IC50 (COX-2); cited from earlier work
[3] = CCK-8, concentration not stated

Structure (SMILES)	melting point [°C]	IC50 ([1]; Mus musculus, RAW264.7) [µM]	IC50 [2] [µM]	COX-2 inhibitory activity (in words) [2]	IC50 [1] [µM]	Anti-inflammatory activity, NO production (in words) [1]	Cytotoxicity (in words) (RAW 264.7 cells; [3])	Cytotoxicity (in words) (RAW 264.7 cells; CCK-8, at 100 μM)	IC50 (COX-2) [µM]
CC(=O)N1C(=O)/C(=C\c2cccc(C(F)(F)F)c2)c2ccc(C(F)(F)F)cc21 [Compound 4a]	131.2 to 132.1	17.8 ± 1.86	19.9 ± 4.76	–	–	obvious anti-inflammatory activity	weak cytotoxicity	–	–
CC(=O)N1C(=O)/C(=C/c2cccc(C(F)(F)F)c2)c2ccc(C(F)(F)F)cc21 [Compound 4b]	91.3 to 92.8	–	–	–	–	–	–	–	–
CC(=O)N1C(=O)C(=Cc2cccc(C(F)(F)F)c2)c2cc(N)ccc21 [Compound 4e]	165.9 to 166.2	13.5 ± 0.48	3.34 ± 0.05	–	–	obvious anti-inflammatory activity	weak cytotoxicity	almost no cytotoxicity; also recorded: no significant cytotoxicity	–
CC(=O)N1C(=O)C(=Cc2ccc(C(F)(F)F)cc2)c2ccc(Cl)cc21 [Compound 4i]	142.9 to 144.1	20.4 ± 1.61	–	–	–	obvious anti-inflammatory activity	weak cytotoxicity	–	–
CC(=O)N1C(=O)C(=Cc2cccc(C(F)(F)F)c2)c2ccccc21 [Compound 4j]	121.5 to 123.3	16.3 ± 0.35	–	–	–	obvious anti-inflammatory activity	weak cytotoxicity	–	–
CC(=O)N1C(=O)C(=Cc2ccccc2C(F)(F)F)c2ccc(Cl)cc21 [Compound 4k]	131 to 133.6	–	> 20	–	–	–	–	–	–
COc1cccc(C=C2C(=O)N(C(C)=O)c3cc(Cl)ccc32)c1 [Compound 4s]	141.3 to 143.2	–	–	–	–	–	–	almost no cytotoxicity	–
S=C(S)N1CCCC1 [PDTC, Ammonium pyrrolidinedithiocarbamate, reference compound]	–	–	–	–	13.7 ± 0.88	–	–	–	–

The next lines start with results.

melting point [°C]	IC50 ([1]; Mus musculus, RAW264.7) [µM]	IC50 [2] [µM]	COX-2 inhibitory activity (in words) [2]	IC50 [1] [µM]	Structure (SMILES)	Anti-inflammatory activity, NO production (in words) [1]	Cytotoxicity (in words) (RAW 264.7 cells; [3])	Cytotoxicity (in words) (RAW 264.7 cells; CCK-8, at 100 μM)	IC50 (COX-2) [µM]
226.5 to 226.9	10 ± 0.27	–	–	–	O=C1Nc2ccc(NS(=O)(=O)c3ccc([N+](=O)[O-])cc3)cc2C1=Cc1cccc(C(F)(F)F)c1 [Compound 9d]	obvious anti-inflammatory activity	weak cytotoxicity	–	–
191.1 to 191.5	–	–	–	–	Cc1ccc(S(=O)(=O)Nc2ccc3c(c2)C(=Cc2cccc(C(F)(F)F)c2)C(=O)N3)cc1 [Compound 9f]	–	–	–	–
166.3 to 166.8	–	2.35 ± 0.04	good inhibitory activity	–	O=C1Cc2cc(/N=C/c3cccc(C(F)(F)F)c3)ccc2N1 [Compound 9h]	no anti-inflammatory activity	no cytotoxicity	almost no cytotoxicity	–
191.1 to 191.5	–	2.42 ± 0.1	good inhibitory activity	–	O=C1Cc2cc(N=Cc3cc(C(F)(F)F)cc(C(F)(F)F)c3)ccc2N1 [Compound 9i, 5-((3,5-bis(trifluoromethyl)benzylidene)amino)indolin-2-one]	no anti-inflammatory activity	no cytotoxicity	almost no cytotoxicity	–
